Experimental data reported in the NIST ThermoML archive (doi:10.1016/j.jct.2012.03.031).

Assay: molar heat capacity at constant pressure
Details: 101.33 kPa

CCCCc1ccc(C(=O)Oc2ccc(C#N)c(F)c2)cc1 [4-cyano-3-fluorophenyl 4-butylbenzoate]
Details | molar heat capacity at constant pressure [J/K/mol]
4.918 K, Crystal 1, Small (less than 1 g) adiabatic calorimetry | 1.032
5 K, Crystal 1, Vacuum adiabatic calorimetry | 1.08
5 K, Crystal 2, Vacuum adiabatic calorimetry | 1.44
5.052 K, Crystal 2, Small (less than 1 g) adiabatic calorimetry | 1.482
5.07 K, Crystal 1, Small (less than 1 g) adiabatic calorimetry | 1.127
5.575 K, Crystal 1, Small (less than 1 g) adiabatic calorimetry | 1.448
5.722 K, Crystal 2, Small (less than 1 g) adiabatic calorimetry | 2.06
5.747 K, Crystal 1, Small (less than 1 g) adiabatic calorimetry | 1.591
6.284 K, Crystal 1, Small (less than 1 g) adiabatic calorimetry | 2.011
6.538 K, Crystal 2, Small (less than 1 g) adiabatic calorimetry | 2.901
6.573 K, Crystal 1, Small (less than 1 g) adiabatic calorimetry | 2.293
7.108 K, Crystal 1, Small (less than 1 g) adiabatic calorimetry | 2.802
7.413 K, Crystal 2, Small (less than 1 g) adiabatic calorimetry | 3.946
7.456 K, Crystal 1, Small (less than 1 g) adiabatic calorimetry | 3.2
8.006 K, Crystal 1, Small (less than 1 g) adiabatic calorimetry | 3.815
8.284 K, Crystal 2, Small (less than 1 g) adiabatic calorimetry | 5.139
8.384 K, Crystal 1, Small (less than 1 g) adiabatic calorimetry | 4.319
8.948 K, Crystal 1, Small (less than 1 g) adiabatic calorimetry | 5.034
9.21 K, Crystal 2, Small (less than 1 g) adiabatic calorimetry | 6.549
9.353 K, Crystal 1, Small (less than 1 g) adiabatic calorimetry | 5.638
9.931 K, Crystal 1, Small (less than 1 g) adiabatic calorimetry | 6.451
10 K, Crystal 1, Vacuum adiabatic calorimetry | 6.56
10 K, Crystal 2, Vacuum adiabatic calorimetry | 7.87
10.23 K, Crystal 2, Small (less than 1 g) adiabatic calorimetry | 8.254
10.31 K, Crystal 1, Small (less than 1 g) adiabatic calorimetry | 7.064
10.88 K, Crystal 1, Small (less than 1 g) adiabatic calorimetry | 7.93
11.24 K, Crystal 2, Small (less than 1 g) adiabatic calorimetry | 10.07
11.26 K, Crystal 1, Small (less than 1 g) adiabatic calorimetry | 8.608
11.81 K, Crystal 1, Small (less than 1 g) adiabatic calorimetry | 9.492
12.23 K, Crystal 1, Small (less than 1 g) adiabatic calorimetry | 10.25
12.28 K, Crystal 2, Small (less than 1 g) adiabatic calorimetry | 12.04
12.81 K, Crystal 1, Small (less than 1 g) adiabatic calorimetry | 11.22
13.24 K, Crystal 1, Small (less than 1 g) adiabatic calorimetry | 12.07
13.39 K, Crystal 2, Small (less than 1 g) adiabatic calorimetry | 14.28
13.89 K, Crystal 1, Small (less than 1 g) adiabatic calorimetry | 13.26
14.32 K, Crystal 1, Small (less than 1 g) adiabatic calorimetry | 14.11
14.71 K, Crystal 2, Small (less than 1 g) adiabatic calorimetry | 17
15.07 K, Crystal 1, Small (less than 1 g) adiabatic calorimetry | 15.49
15.47 K, Crystal 1, Small (less than 1 g) adiabatic calorimetry | 16.32
16.2 K, Crystal 2, Small (less than 1 g) adiabatic calorimetry | 20.27
16.43 K, Crystal 1, Small (less than 1 g) adiabatic calorimetry | 18.21
16.76 K, Crystal 1, Small (less than 1 g) adiabatic calorimetry | 18.95
17.73 K, Crystal 2, Small (less than 1 g) adiabatic calorimetry | 23.69
18.05 K, Crystal 1, Small (less than 1 g) adiabatic calorimetry | 21.6
18.4 K, Crystal 1, Small (less than 1 g) adiabatic calorimetry | 22.4
19.39 K, Crystal 2, Small (less than 1 g) adiabatic calorimetry | 27.53
19.84 K, Crystal 1, Small (less than 1 g) adiabatic calorimetry | 25.4
20 K, Crystal 1, Vacuum adiabatic calorimetry | 25.75
20 K, Crystal 2, Vacuum adiabatic calorimetry | 28.93
20.07 K, Crystal 1, Small (less than 1 g) adiabatic calorimetry | 25.94
21.11 K, Crystal 2, Small (less than 1 g) adiabatic calorimetry | 31.48
21.53 K, Crystal 1, Small (less than 1 g) adiabatic calorimetry | 29.12
21.58 K, Crystal 1, Small (less than 1 g) adiabatic calorimetry | 29.19
22.83 K, Crystal 2, Small (less than 1 g) adiabatic calorimetry | 35.46
23.05 K, Crystal 1, Small (less than 1 g) adiabatic calorimetry | 32.44
23.28 K, Crystal 1, Small (less than 1 g) adiabatic calorimetry | 32.87
24.53 K, Crystal 2, Small (less than 1 g) adiabatic calorimetry | 39.3
24.67 K, Crystal 1, Small (less than 1 g) adiabatic calorimetry | 35.93
24.93 K, Crystal 1, Small (less than 1 g) adiabatic calorimetry | 36.45
26.2 K, Crystal 2, Small (less than 1 g) adiabatic calorimetry | 43.02
26.34 K, Crystal 1, Small (less than 1 g) adiabatic calorimetry | 39.52
26.69 K, Crystal 1, Small (less than 1 g) adiabatic calorimetry | 40.25
27.89 K, Crystal 2, Small (less than 1 g) adiabatic calorimetry | 47.05
27.96 K, Crystal 1, Small (less than 1 g) adiabatic calorimetry | 43.27
28.5 K, Crystal 1, Small (less than 1 g) adiabatic calorimetry | 44.43
29.49 K, Crystal 1, Small (less than 1 g) adiabatic calorimetry | 46.73
29.58 K, Crystal 2, Small (less than 1 g) adiabatic calorimetry | 50.91
30 K, Crystal 1, Vacuum adiabatic calorimetry | 47.75
30 K, Crystal 2, Vacuum adiabatic calorimetry | 51.82
30.38 K, Crystal 1, Small (less than 1 g) adiabatic calorimetry | 48.59
30.97 K, Crystal 1, Small (less than 1 g) adiabatic calorimetry | 49.89
31.27 K, Crystal 2, Small (less than 1 g) adiabatic calorimetry | 54.58
32.25 K, Crystal 1, Small (less than 1 g) adiabatic calorimetry | 52.59
32.3 K, Crystal 1, Small (less than 1 g) adiabatic calorimetry | 52.61
32.73 K, Crystal 2, Small (less than 1 g) adiabatic calorimetry | 57.73
33.42 K, Crystal 1, Small (less than 1 g) adiabatic calorimetry | 55.02
34.08 K, Crystal 2, Small (less than 1 g) adiabatic calorimetry | 60.65
34.18 K, Crystal 1, Small (less than 1 g) adiabatic calorimetry | 56.62
34.66 K, Crystal 1, Small (less than 1 g) adiabatic calorimetry | 57.7
35.58 K, Crystal 2, Small (less than 1 g) adiabatic calorimetry | 63.81
35.96 K, Crystal 1, Small (less than 1 g) adiabatic calorimetry | 60.42
36.15 K, Crystal 1, Small (less than 1 g) adiabatic calorimetry | 60.78
37.11 K, Crystal 2, Small (less than 1 g) adiabatic calorimetry | 67
37.29 K, Crystal 1, Small (less than 1 g) adiabatic calorimetry | 63.17
38.18 K, Crystal 1, Small (less than 1 g) adiabatic calorimetry | 64.88
38.66 K, Crystal 1, Small (less than 1 g) adiabatic calorimetry | 65.91
38.66 K, Crystal 2, Small (less than 1 g) adiabatic calorimetry | 70.19
40 K, Crystal 1, Vacuum adiabatic calorimetry | 68.45
40 K, Crystal 2, Vacuum adiabatic calorimetry | 72.67
40.05 K, Crystal 1, Small (less than 1 g) adiabatic calorimetry | 68.62
40.1 K, Crystal 2, Small (less than 1 g) adiabatic calorimetry | 72.86
40.24 K, Crystal 1, Small (less than 1 g) adiabatic calorimetry | 68.92
41.44 K, Crystal 2, Small (less than 1 g) adiabatic calorimetry | 75.41
41.46 K, Crystal 1, Small (less than 1 g) adiabatic calorimetry | 71.35
42.21 K, Crystal 1, Small (less than 1 g) adiabatic calorimetry | 72.67
42.84 K, Crystal 2, Small (less than 1 g) adiabatic calorimetry | 78.05
42.89 K, Crystal 1, Small (less than 1 g) adiabatic calorimetry | 74.07
44.12 K, Crystal 1, Small (less than 1 g) adiabatic calorimetry | 76.27
44.27 K, Crystal 2, Small (less than 1 g) adiabatic calorimetry | 80.76
44.33 K, Crystal 1, Small (less than 1 g) adiabatic calorimetry | 76.76
45.76 K, Crystal 2, Small (less than 1 g) adiabatic calorimetry | 83.54
45.77 K, Crystal 1, Small (less than 1 g) adiabatic calorimetry | 79.44
46.11 K, Crystal 1, Small (less than 1 g) adiabatic calorimetry | 79.97
47.22 K, Crystal 1, Small (less than 1 g) adiabatic calorimetry | 82.08
47.31 K, Crystal 2, Small (less than 1 g) adiabatic calorimetry | 86.36
48.17 K, Crystal 1, Small (less than 1 g) adiabatic calorimetry | 83.7
48.67 K, Crystal 1, Small (less than 1 g) adiabatic calorimetry | 84.74
48.88 K, Crystal 2, Small (less than 1 g) adiabatic calorimetry | 89.17
50 K, Crystal 1, Vacuum adiabatic calorimetry | 86.93
50 K, Crystal 2, Vacuum adiabatic calorimetry | 91.14
50.13 K, Crystal 1, Small (less than 1 g) adiabatic calorimetry | 87.32
50.27 K, Crystal 1, Small (less than 1 g) adiabatic calorimetry | 87.41
50.47 K, Crystal 2, Small (less than 1 g) adiabatic calorimetry | 91.97
51.6 K, Crystal 1, Small (less than 1 g) adiabatic calorimetry | 89.81
52.07 K, Crystal 2, Small (less than 1 g) adiabatic calorimetry | 94.74
52.41 K, Crystal 1, Small (less than 1 g) adiabatic calorimetry | 91.07
53.06 K, Crystal 1, Small (less than 1 g) adiabatic calorimetry | 92.27
53.69 K, Crystal 2, Small (less than 1 g) adiabatic calorimetry | 97.39
54.53 K, Crystal 1, Small (less than 1 g) adiabatic calorimetry | 94.7
54.59 K, Crystal 1, Small (less than 1 g) adiabatic calorimetry | 94.68
55.31 K, Crystal 2, Small (less than 1 g) adiabatic calorimetry | 100.11
56.01 K, Crystal 1, Small (less than 1 g) adiabatic calorimetry | 97.07
56.79 K, Crystal 1, Small (less than 1 g) adiabatic calorimetry | 98.21
56.94 K, Crystal 2, Small (less than 1 g) adiabatic calorimetry | 102.73
57.48 K, Crystal 1, Small (less than 1 g) adiabatic calorimetry | 99.44
58.59 K, Crystal 2, Small (less than 1 g) adiabatic calorimetry | 105.37
58.96 K, Crystal 1, Small (less than 1 g) adiabatic calorimetry | 101.75
58.97 K, Crystal 1, Small (less than 1 g) adiabatic calorimetry | 101.63
60 K, Crystal 1, Vacuum adiabatic calorimetry | 103.22
60 K, Crystal 2, Vacuum adiabatic calorimetry | 107.66
60.24 K, Crystal 2, Small (less than 1 g) adiabatic calorimetry | 108.04
60.44 K, Crystal 1, Small (less than 1 g) adiabatic calorimetry | 104.07
61.09 K, Crystal 1, Small (less than 1 g) adiabatic calorimetry | 104.91
61.9 K, Crystal 2, Small (less than 1 g) adiabatic calorimetry | 110.62
